Results published in ChEMBL document CHEMBL3739315, “Design, synthesis and biological evaluation of thiourea and nicotinamide-containing sorafenib analogs as antitumor agents” (Medchemcomm, 2015).
The source made the active and inactive calls. No cut-off for these calls is given here.

Assays:
MDA-MB-231 = experiment: Antiproliferative activity against human MDA-MB-231 cells by MTT assay; type: functional, cell-based
HepG2 = experiment: Antiproliferative activity against human HepG2 cells by MTT assay; type: functional, cell-based
[1] = Antiproliferative activity against human HCT116 cells by MTT assay; type: functional, cell-based; conditions: HCT-116
[2] = Antiproliferative activity against human PC3 cells by MTT assay; type: functional, cell-based; conditions: PC-3
HUVEC [3] = experiment: Anti-angiogenic activity in human HUVEC assessed as inhibition of tube formation at 0.05 uM by matrigel assay; type: functional, cell-based
Thoracic aorta = experiment: Ex-vivo anti-angiogenic activity in Sprague-Dawley rat thoracic aorta ring assessed as sprouting at 0.05 to 0.1 uM after 6 days; type: functional, tissue-based
HUVEC [4] = experiment: Anti-angiogenic activity in human HUVEC assessed as inhibition of tube formation at 0.1 uM by matrigel assay; type: functional, cell-based

CNC(=O)c1cc(Oc2cccc(NC(=S)Nc3ccc(Cl)c(C(F)(F)F)c3)c2)ccn1
IC50 (MDA-MB-231): 42.4 µM | IC50 (HepG2): 24.9 µM | IC50 [1]: 14.6 µM | IC50 [2]: 16.4 µM

CNC(=O)c1ccc(Oc2cccc(NC(=S)Nc3ccc(F)c(Cl)c3)c2)nc1
IC50 (MDA-MB-231): 28.6 µM | IC50 (HepG2): > 100 µM | IC50 [1]: 25.4 µM | IC50 [2]: 18.4 µM

CNC(=O)c1ccc(Oc2cccc(NC(=S)Nc3ccc(OC)cc3)c2)nc1
IC50 (MDA-MB-231): 31.5 µM | IC50 (HepG2): 85.3 µM | IC50 [1]: 49.8 µM | IC50 [2]: > 100 µM

CNC(=O)c1ccc(Oc2cccc(NC(=S)Nc3cccc(C(F)(F)F)c3)c2)nc1
IC50 (MDA-MB-231): 38.1 µM | IC50 (HepG2): 23.3 µM | IC50 [1]: 36.6 µM | IC50 [2]: 15.4 µM

CNC(=O)c1ccc(Oc2cccc(NC(=S)Nc3ccc(C)cc3)c2)nc1
IC50 (MDA-MB-231): 29.5 µM | IC50 (HepG2): 65.4 µM | IC50 [1]: 53.7 µM | IC50 [2]: > 100 µM

CNC(=O)c1ccc(Oc2cccc(NC(=S)Nc3ccc(F)c(F)c3)c2)nc1
IC50 (MDA-MB-231): 69.3 µM | IC50 (HepG2): 26.7 µM | IC50 [1]: 38.2 µM | IC50 [2]: 23.1 µM

CNC(=O)c1ccc(Oc2cccc(NC(=S)Nc3cc(C(F)(F)F)cc(C(F)(F)F)c3)c2)nc1
IC50 (MDA-MB-231): 2.67 µM | inhibition (HUVEC [3]): Active | IC50 (HepG2): 4.55 µM | IC50 [1]: 2.5 µM | IC50 [2]: 5.86 µM | inhibition (Thoracic aorta): Active

CNC(=O)c1ccc(Oc2cccc(NC(=S)Nc3ccc(Cl)c(C(F)(F)F)c3)c2)nc1
IC50 (MDA-MB-231): 2.33 µM | inhibition (HUVEC [3]): Active | IC50 (HepG2): 5.35 µM | IC50 [1]: 2.21 µM | IC50 [2]: 1.98 µM | inhibition (Thoracic aorta): Active

CNC(=O)c1cc(Oc2ccc(NC(=O)Nc3ccc(Cl)c(C(F)(F)F)c3)cc2)ccn1 [SORAFENIB]
IC50 (MDA-MB-231): 17.8 µM | inhibition (HUVEC [3]): Active | IC50 (HepG2): 10.5 µM | IC50 [1]: 8.41 µM | IC50 [2]: 11 µM | inhibition (HUVEC [4]): Active

CNC(=O)c1ccc(Oc2cccc(NC(=S)Nc3ccc(F)cc3)c2)nc1
IC50 (MDA-MB-231): 21.7 µM | IC50 (HepG2): 42.5 µM | IC50 [1]: 39.4 µM | IC50 [2]: 32.7 µM

CNC(=O)c1ccc(Oc2cccc(NC(=S)Nc3ccc(C)c(C)c3)c2)nc1
IC50 (MDA-MB-231): 38.6 µM | IC50 (HepG2): > 100 µM | IC50 [1]: 48.2 µM | IC50 [2]: 67.4 µM

CNC(=O)c1ccc(Oc2cccc(NC(=S)Nc3ccc(Br)c(C(F)(F)F)c3)c2)nc1
IC50 (MDA-MB-231): 3.02 µM | IC50 (HepG2): 8.53 µM | IC50 [1]: 3.12 µM | IC50 [2]: 2.67 µM

CNC(=O)c1ccc(Oc2cccc(NC(=S)Nc3ccc(F)c(C(F)(F)F)c3)c2)nc1
IC50 (MDA-MB-231): 13.3 µM | IC50 (HepG2): 20.2 µM | IC50 [1]: 19 µM | IC50 [2]: 7.95 µM

CNC(=O)c1ccc(Oc2cccc(NC(=S)Nc3ccc(OC(F)(F)F)cc3)c2)nc1
IC50 (MDA-MB-231): 56 µM | IC50 (HepG2): > 100 µM | IC50 [1]: 54.7 µM | IC50 [2]: > 100 µM

CNC(=O)c1ccc(Oc2cccc(NC(=S)Nc3ccc(Cl)cc3)c2)nc1
IC50 (MDA-MB-231): 66.5 µM | IC50 (HepG2): 29.4 µM | IC50 [1]: 42.5 µM | IC50 [2]: 28.4 µM

CNC(=O)c1ccc(Oc2cccc(NC(=S)Nc3ccc(Cl)cc3Cl)c2)nc1
IC50 (MDA-MB-231): 20.7 µM | IC50 (HepG2): 21.6 µM | IC50 [1]: 20.9 µM | IC50 [2]: 19.3 µM
